Experimental data from patent US5858702A, “Isolation, cloning and expression of transmembrane water channel Aquaporin 5 (AQP5)” (The Johns Hopkins University, priority 1995, dated 1999).

Experiments:
[1] = Stopped-flow water flux (Pf) in control liposomes, effect of mercurial reagents; type: biochemical; conditions: 1 mM mercurial
Method: (§1) Purified AQP1 was stored overnight at 0° C. or frozen for several days at -80° C. prior to reconstitution. Reconstitution into proteoliposomes was carried out in a final volume of 1 ml containing 60-90 μg of purified AQP 1 protein in chromatography buffer, 9 mg of bath-sonicated E. coli phospholipid, 1.25% (w/v) octyl glucoside, and 50 mM Tris-HCl (pH 7.5). The mixture was briefly blended on a vortex mixer and incubated for 20 minutes on ice. […] Protein and phospholipid were measured as described by Ambudkar & Maloney (J. Biol. Chem., 1986, 261:10079-10086).
Permeability measurements. Membrane permeability measurements (Pf) were measured by exposing AQP1 proteoliposomes or control liposomes to an osmotic gradient by rapid mixing with an equal volume of another solution containing buffer A plus sufficient sucrose to increase osmolality in the mixed solutions to a value 120% of that in the original solution. This was performed with a stopped-flow fluorometer (SF.17MV, Applied Photophysics, Leatherhead, U.K.) with a measured dead time of 0.7 ms. […] Extravesicular carboxyfluorescein fluorescence was completely quenched using anti-fluorescein antibody (Harris et al., 1990, Am. J. Physiol. 259:F366-F371). […]

CHIP28 = molecular target: T1, CHIP28 (Homo sapiens, UniProt P29972); assay: Stopped-flow water flux (Pf) in CHIP28 proteoliposomes, effect of mercurial reagents; type: biochemical; conditions: 1 mM
T1 construct: was comprised of AQP1 (the 28-kDa protein itself and the 35-60-kDa glycosylated protein); from tissue; host or cells: human erythrocytes (blood-bank units; small-scale purifications from freshly drawn whole blood)
T1 sequence (P29972 2-269 limits assumed): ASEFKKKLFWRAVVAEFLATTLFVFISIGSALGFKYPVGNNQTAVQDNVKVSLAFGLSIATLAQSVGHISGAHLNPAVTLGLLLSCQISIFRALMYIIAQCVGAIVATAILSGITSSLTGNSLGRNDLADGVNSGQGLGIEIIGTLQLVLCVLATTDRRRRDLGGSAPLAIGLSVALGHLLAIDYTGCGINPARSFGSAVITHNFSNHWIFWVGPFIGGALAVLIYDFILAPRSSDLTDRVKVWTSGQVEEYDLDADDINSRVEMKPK
Method: Purified AQP1 was stored overnight at 0° C. or frozen for several days at -80° C. prior to reconstitution. Reconstitution into proteoliposomes was carried out in a final volume of 1 ml containing 60-90 μg of purified AQP 1 protein in chromatography buffer, 9 mg of bath-sonicated E. coli phospholipid, 1.25% (w/v) octyl glucoside, and 50 mM Tris-HCl (pH 7.5). The mixture was briefly blended on a vortex mixer and incubated for 20 minutes on ice. Proteoliposomes (or liposomes prepared without protein) were formed at room temperature by rapidly injecting the mixture into 25 ml of buffer A [50 mM MOPS, pH 7.5, 150 mM N-methyl-D-glucamine (NMDG) chloride also containing 10-15 mM carboxyfluorescein, 1 mM dithiothreitol, and 0.5 mM PMSF]. For the measurement of proton permeability, proteoliposomes and liposomes were loaded with buffer B (5 mM MOPS, pH 7.5, 150 mM KCl, 0.5 mM carboxyfluorescein, 1 mM dithiothreitol, and 0.5 mM PMSF). The suspension was incubated for 20 minutes at room temperature. Proteoliposomes or liposomes were collected by centrifugation for 1 hour at 123000×g in a Beckman Type 42.1 rotor at 4° C. The pellet was resuspended in 8 ml of buffer A or B and then centrifuged for 1 hour at 152000×g in a Beckman Type 50 Ti rotor. Proteoliposomes or liposomes were resuspended in 300 μl of buffer A or B and stored at 4° C. for 16-24 hours. Typically 50% (54±6%, n=5) of the AQP1 protein and 70% of the phospholipid were recovered in proteoliposomes. The lipid to protein ratio was in the range of 120:1 to 219:1. These proteoliposomes have internal volumes of 1 μl/mg of phospholipid (Ambudkar and Maloney, 1986, J. Biol. Chem. 261:10079-10086). Protein and phospholipid were measured as described by Ambudkar & Maloney (J. Biol. Chem., 1986, 261:10079-10086).
Permeability measurements. Membrane permeability measurements (Pf) were measured by exposing AQP1 proteoliposomes or control liposomes to an osmotic gradient by rapid mixing with an equal volume of another solution containing buffer A plus sufficient sucrose to increase osmolality in the mixed solutions to a value 120% of that in the original solution. This was performed with a stopped-flow fluorometer (SF.17MV, Applied Photophysics, Leatherhead, U.K.) with a measured dead time of 0.7 ms. The excitation wavelength was set at 490±1.5 nm using a 150-W mercury-xenon arc lamp and monochromator (.function.3.4 grating monochromator, both from Applied Photophysics); the emission wavelength was >515 nm using a cut-on filter (Oriel Corp., Stratford, Conn.). Extravesicular carboxyfluorescein fluorescence was completely quenched using anti-fluorescein antibody (Harris et al., 1990, Am. J. Physiol. 259:F366-F371).
Within the range of osmolalities used in these experiments, the vesicles acted as perfect osmometers, and relative volume (absolute volume divided by initial volume) was linearly related to relative fluorescence (absolute fluorescence divided by initial fluorescence). The data obtained from 8 to 16 determinations was averaged and fit to single-exponential curves using 5 software provided by Applied Photophysics (Zeidel et al., 1992, Biochemistry 31:589-596). The fitting parameters were then used to determine Pf by first applying the linear conversion from relative fluorescence to relative volume and then iteratively solving the water permeability equation using MathCAD software (MathSoft, Cambridge, Mass.):
dV(t)/dt=(Pf)(SAV)(MVW)[(Cin /V(t))-Cout ] (1)
where V(t) is relative intravesicular volume as a function of time, Pf is osmotic water permeability in centimeters per second, SAV is the vesicle surface area to volume ratio, MVW is the molar volume of water (18 cm^3 /mol), and Cin and Cout are the initial concentrations of total solute inside and outside the vesicle, respectively (Zeidel et al., 1992, Biochemistry 31:589-596).
Effect of mercural reagents.

[2] = Proton permeability (PH+) of CHIP28 proteoliposomes; type: biochemical; conditions: 1 μM gramicidin A added to vesicles
Method: as §1, with “ice. Proteoliposomes (or liposomes prepared without protein) were formed at room temperature by rapidly injecting the mixture into 25 ml of buffer A [50 mM MOPS, pH 7.5, 150 mM N-methyl-D-glucamine (NMDG) chloride also containing 10-15 mM carboxyfluorescein, 1 mM dithiothreitol, and 0.5 mM PMSF].” for “ice.”
Exclusion of protons. […] Proton permeability was measured in CHIP28-containing liposomes containing 150 mM KCl and 5 mM MOPS, incorporating 1 μM valinomycin to prevent accumulation of protons from generating a positive intravesicular voltage. […] Over the pH range employed, fluorescence was linearly related to pH; extravesicular fluorescence was quenched with anti-fluorescein antibody. To ensure that increases in PH+ caused by CHIP28 could have been detected, 1 μM gramicidin A was added and increased PH+ by over 50-fold in each experiment.

human RBC = conditions: cited from earlier work
Xenopus oocytes = assay: Two electrode voltage clamp of AQP5-expressing oocytes; type: cell-based; conditions: electrophysiological studies, not shown
Method: Functional expression in Oocytes--A 1-kb BamHI fragment containing the 5' untranslated sequence and the entire open reading frame of the salivary cDNA was blunt-end-ligated into the BglII site of the Xenopus expression construct pXβG, which contains the HindIII-Pst insert of pSP64T in pBS II KS (Preston et al., 1992, Science, 256:385-387). Capped cRNA was synthesized in vitro after digestion with Xbal (Preston et al., 1993). Defolliculated stage V-VI Xenopus oocytes were injected with 50 nl of water or up to 5 ng of sample cRNAs and incubated for 3 days at 18° C. in 200 mosM modified Barth's buffer. The oocytes were transferred to 70 mosM modified Barth's buffer at 21° C.; oocyte swelling was monitored by videomicroscopy, and the coefficient of osmotic water permeability (Pf) was determined (Preston et al., 1992, 1993). Uptake of [^14 C]urea or [^14 C]glycerol was measured by incubating oocytes in 200 mosM Barth's buffer for 10-20 min at 21° C. followed by washing and SDS solubilization. No increase in ion conductance was found when control oocytes were compared to RNA-injected oocytes by two electrode voltage clamps (Preston et al, 1992).

Question: For `O=S(=O)([O-])c1cc[c]([Hg][Cl])cc1` [pCMBS, p-chloromercuribenzene sulfonate], which “effect on the Pf of control liposomes” value [1] is on record?
Answer: Its value is “Neither pCMBS nor HgCl2 had any effect”.

Question: And the “inhibition of Pf at 5 and 10 minutes” value (CHIP28; 37° C.)?
Answer: The value was “partial”.

Question: And the “time to complete inhibition of Pf” value (CHIP28; 37° C.)?
Answer: Its value is 20 to 30 min.

Question: What about the “Pf in CHIP28 proteoliposomes after mercurial” value (CHIP28; 37° C. (FIG. 12: pCMBS 25 minutes, HgCl2 3 minutes)) of the same molecule?
Answer: The value was 0.009±0.005 cm/s.

Question: For gramicidin A, which “increase of PH+” value [2] is on record?
Answer: Its value is “over 50 fold”.

Question: What does the source list for `O=C(CCc1ccc(O)cc1)c1c(O)cc(O)cc1O` [Phloretin]?
Answer: urea flux in human RBC (human RBC): inhibits urea flux; water flux in human RBC (human RBC): without altering water flux

B1: AQP5: 265-residue rat salivary water channel protein, 5th mammalian Aquaporin (protein, UniProt P47864 1-265, looked up)
Aquaporin-5: MKKEVCSLAFFKAVFAEFLATLIFVFFGLGSALKWPSALPTILQISIAFGLAIGTLAQALGPVSGGHINPAITLALLIGNQISLLRAVFYVAAQLVGAIAGAGILYWLAPLNARGNLAVNALNNNTTPGKAMVVELILTFQLALCIFSSTDSRRTSPVGSPALSIGLSVTLGHLVGIYFTGCSMNPARSFGPAVVMNRFSPSHWVFWVGPIVGAMLAAILYFYLLFPSSLSLHDRVAVVKGTYEPEEDWEDHREERKKTIELTAH
Question: For B1, which membrane conductance (Xenopus oocytes) is on record?
Answer: The membrane conductance was “failed to reveal increased membrane conductance”.
